Patent US20240316001A1, “USE OF PHARMACEUTICAL COMPOSITION COMPRISING CHLOROGENIC ACID IN PREPARATION OF DRUG FOR TREATING EARLY ALZHEIMER'S DISEASE” (SICHUAN JIUZHANG BIOLOGICAL SCIENCE AND TECHNOLOGY CO., LTD., priority 2021, published 2024)

Legend:
[1] = tested on: chronic cerebral hypoperfusion model rats (bilateral carotid artery ligation; simulated early AD); experiment: Morris water maze orientation navigation experiment in chronic cerebral hypoperfusion model rats; type: in vivo, Sprague Dawley (SD) rats; details: for average escape latency in Morris water maze experiment / searching distance in Morris water maze experiment: after 20 consecutive days of administration, CGA 60 mg/kg/d i.p., 3-coumaroylquinic acid alone 0.03 mg/kg/d i.p., sodium oligomannate 100 mg/kg/d gavage, mean±SD, n=10; for escape latency and searching distance of rats compared with the model group (in words): Morris water maze, over the 5-day experiment, versus model group
Text: (§1) In this experiment, the occurrence of mild AD in humans after chronic cerebral hypoperfusion was simulated by performing bilateral carotid artery ligation in rats, and the intervention of the pharmaceutical composition according to the present invention on the learning and memory ability of these rats was observed, in order to investigate the therapeutic effect of the pharmaceutical composition according to the present invention on early AD.
(§2) 2.1. Experimental Animals: 6-8 Week Old, SPF Grade, Male Sprague Dawley (SD) Healthy Rats, Weighing 280-300 g.
(§3) A chronic cerebral hypoperfusion model was established by bilateral carotid artery ligation. Rats were acclimated to the environment for 1 week, and then fasted for 12 h and water-deprivated for 4 h before surgery. The rats were anesthetized with 0.4% pentobarbital sodium (0.5 mL/100 g i.p.), and fixed in a supine position on the operating table. Hair was removed from the skin in front of the neck. The naked skin was disinfected with iodine, and then the rats were incised in the middle of the neck. The subcutaneous superficial fascia was bluntly separated, and then the sternocleidomastoideole and sternohyoid muscle were carefully separated along both sides of the trachea, with arterial sheath visible; the bilateral common carotid arteries were separated and exposed with a glass needle, to bury the thread, and then double ligated with silk thread. The blood vessels between the two ligation points were cut off. The incision was sutured layer by layer and disinfected, followed by waiting for awakening of rats. During the operation, incandescent lamp irradiation was used to maintain the anal temperature of rats at 36.5° C.-37.5° C. After surgery, each rat was placed in a single cage to prevent suffocation.
(§4) 10 healthy SD rats with suitable body weight (within the required range) were randomly selected as the normal control group. 80 successfully modeled rats were randomly divided into 8 groups, with 10 rats in each group. They were named as follows: model control group (n=10), CGA treatment group (n=10), 3-coumaroylquinic acid treatment group (n=10), CGA+3-coumaroylquinic acid (100:0.01) treatment group (n=10), CGA+3-coumaroylquinic acid (100:0.05) treatment group (n=10), CGA+3-coumaroylquinic acid (100:0.5) treatment group (n=10), CGA+3-coumaroylquinic acid (100:1) treatment group (n=10), sodium oligomannate treatment group (n=10), and thus, there are […], along with the normal control group (n=10), for a total of 90 rats.
In this experiment, except for sodium oligomannate treatment group, which was administered by gavage, all other treatment groups were administered by intraperitoneal injection to each group of rats. The blank group and model group were given the solvent physiological saline by intraperitoneal injection. Rats in each treatment group were administrated one week after modeling surgery. Then, after 20 consecutive days of administration, the experiment was carried out. The administration continued during the experiment. At the same time, both the blank group and the model group were given an equal amount of physiological saline. […]

[2] = tested on: chronic cerebral hypoperfusion model rats (bilateral carotid artery ligation; simulated early AD); experiment: Morris water maze space exploration experiment in chronic cerebral hypoperfusion model rats; type: in vivo, Sprague Dawley (SD) rats; details: for searching time in the quadrant of the original platform compared with the model group (in words): Morris water maze space exploration, versus model group; for Time spent in the original platform quadrant: platform removed, after the orientation navigation experiment, CGA 60 mg/kg/d i.p., 3-coumaroylquinic acid alone 0.03 mg/kg/d i.p., sodium oligomannate 100 mg/kg/d gavage, mean±SD, n=10
Text: as §1, §2, §3, §4
In this experiment, except for sodium oligomannate treatment group, which was administered by gavage, all other treatment groups were administered by intraperitoneal injection to each group of rats. […]

O=C(/C=C/c1ccc(O)cc1)O[C@@H]1C[C@](O)(C(=O)O)C[C@@H](O)[C@H]1O [3-coumaroylquinic acid]
average escape latency in Morris water maze experiment ([1]; Day 1): 98.1 ± 16.8 s | searching distance in Morris water maze experiment ([1]; Day 1): 1127.3 ± 117.2 cm | average escape latency in Morris water maze experiment ([1]; Day 2): 94.2 ± 15.3 s | searching distance in Morris water maze experiment ([1]; Day 2): 954.5 ± 119.3 cm | average escape latency in Morris water maze experiment ([1]; Day 3): 81.5 ± 13.7 s | searching distance in Morris water maze experiment ([1]; Day 3): 892.6 ± 106.2 cm | average escape latency in Morris water maze experiment ([1]; Day 4): 75.4 ± 16.3 s | searching distance in Morris water maze experiment ([1]; Day 4): 577.1 ± 72.5 cm | average escape latency in Morris water maze experiment ([1]; Day 5): 51.8 ± 14.2 s | searching distance in Morris water maze experiment ([1]; Day 5): 407.1 ± 44.3 cm | escape latency and searching distance of rats compared with the model group (in words) [1]: almost no improvement | searching time in the quadrant of the original platform compared with the model group (in words) [2]: almost no extension | Time spent in the original platform quadrant [2]: 30.2 ± 7.8 s

O=C(/C=C/c1ccc(O)c(O)c1)O[C@@H]1C[C@](O)(C(=O)O)C[C@@H](O)[C@H]1O [CGA, 3-O-caffeoylquinic acid]
average escape latency in Morris water maze experiment ([1]; Day 1): 95.4 ± 15.1 s | searching distance in Morris water maze experiment ([1]; Day 1): 1125.6 ± 108.4 cm | average escape latency in Morris water maze experiment ([1]; Day 2): 89.2 ± 17.5 s | searching distance in Morris water maze experiment ([1]; Day 2): 944.3 ± 102.5 cm | average escape latency in Morris water maze experiment ([1]; Day 3): 75.6 ± 12.6 s | searching distance in Morris water maze experiment ([1]; Day 3): 844.8 ± 99.1 cm | average escape latency in Morris water maze experiment ([1]; Day 4): 70.7 ± 14.5 s | searching distance in Morris water maze experiment ([1]; Day 4): 560.9 ± 64.2 cm | average escape latency in Morris water maze experiment ([1]; Day 5): 46.3 ± 10.6 s | searching distance in Morris water maze experiment ([1]; Day 5): 395.2 ± 42.7 cm | escape latency and searching distance of rats compared with the model group (in words) [1]: almost no improvement | searching time in the quadrant of the original platform compared with the model group (in words) [2]: almost no extension | Time spent in the original platform quadrant [2]: 32.6 ± 8.5 s
